Measurements published in ChEMBL document CHEMBL1126213, “Synthesis and biological activity of a 5,6-substituted teleocidin” (Bioorg Med Chem Lett, 1992).

Molecular target: Protein kinase C, PKC; classical/novel
Assay: Binding to PKC in 3[H]-[…] assay
Assay type: protein assay

IC50: 400 nM
Compound: CC(C)[C@@H]1Nc2c3c(cc4[nH]cc(c24)C[C@@H](CO)NC1=O)C(C)(C)CCC3(C)C
